# Patent publication EP4574835A1, “AMORPHOUS FORM OF KETOAMIDE DERIVATIVE, AND PREPARATION METHOD THEREFOR” (Guangdong Raynovent Biotech Co., Ltd., priority 2022, dated 2024)
# Assay: Pharmacokinetic model of mouse
# Assay type: in vivo
smiles,measurement,value
O=C(NC1CCCC1)C(=O)[C@H](C[C@@H]1CCNC1=O)NC(=O)[C@@H]1[C@H]2CCC[C@H]2CN1C(=O)[C@@H](NC(=O)C(F)(F)F)C1CCCCC1 [Compound of Formula (I)],clearance rate,lower
same,half-life,longer
